Measurements reported in BigSolDB 2.1.

Compound `Cc1ccc(S(C)(=O)=O)cc1` has a solubility (mole fraction) (in DMF, 278.15 K) of 0.123, a solubility (mole fraction) (in DMF, 283.15 K) of 0.146 and a solubility (mole fraction) (in DMF, 288.15 K) of 0.177. For the same compound, the solubility (mole fraction) (in DMF, 293.15 K) was 0.208, the solubility (mole fraction) (in DMF, 298.15 K) was 0.244 and the solubility (mole fraction) (in DMF, 303.15 K) was 0.282. It also gave a solubility (mole fraction) (in DMF, 308.15 K) of 0.332, a solubility (mole fraction) (in DMF, 313.15 K) of 0.389 and a solubility (mole fraction) (in DMF, 318.15 K) of 0.45. For the same compound, the solubility (mole fraction) (in acetone, 278.15 K) was 0.0999, the solubility (mole fraction) (in acetone, 283.15 K) was 0.118 and the solubility (mole fraction) (in acetone, 288.15 K) was 0.144. For the same compound, the solubility (mole fraction) (in acetone, 293.15 K) was 0.172, the solubility (mole fraction) (in acetone, 298.15 K) was 0.199 and the solubility (mole fraction) (in acetone, 303.15 K) was 0.234. The solubility (mole fraction) (in acetone, 308.15 K) was 0.274, the solubility (mole fraction) (in acetone, 313.15 K) was 0.322 and the solubility (mole fraction) (in acetone, 318.15 K) was 0.379. For the same compound, the solubility (mole fraction) (in acetonitrile, 278.15 K) was 0.084, the solubility (mole fraction) (in acetonitrile, 283.15 K) was 0.102 and the solubility (mole fraction) (in acetonitrile, 288.15 K) was 0.13. It also gave a solubility (mole fraction) (in acetonitrile, 293.15 K) of 0.155, a solubility (mole fraction) (in acetonitrile, 298.15 K) of 0.183 and a solubility (mole fraction) (in acetonitrile, 303.15 K) of 0.218. The solubility (mole fraction) (in acetonitrile, 308.15 K) was 0.258, the solubility (mole fraction) (in acetonitrile, 313.15 K) was 0.3 and the solubility (mole fraction) (in acetonitrile, 318.15 K) was 0.359. For the same compound, the solubility (mole fraction) (in ethanol, 278.15 K) was 0.00721, the solubility (mole fraction) (in ethanol, 283.15 K) was 0.00993 and the solubility (mole fraction) (in ethanol, 288.15 K) was 0.0137. The solubility (mole fraction) (in ethanol, 293.15 K) was 0.018, the solubility (mole fraction) (in ethanol, 298.15 K) was 0.0241 and the solubility (mole fraction) (in ethanol, 303.15 K) was 0.0321. It also gave a solubility (mole fraction) (in ethanol, 308.15 K) of 0.042, a solubility (mole fraction) (in ethanol, 313.15 K) of 0.055 and a solubility (mole fraction) (in ethanol, 318.15 K) of 0.0712. The solubility (mole fraction) (in ethyl acetate, 278.15 K) was 0.0611, the solubility (mole fraction) (in ethyl acetate, 283.15 K) was 0.0732 and the solubility (mole fraction) (in ethyl acetate, 288.15 K) was 0.0872. It also gave a solubility (mole fraction) (in ethyl acetate, 293.15 K) of 0.103, a solubility (mole fraction) (in ethyl acetate, 298.15 K) of 0.123 and a solubility (mole fraction) (in ethyl acetate, 303.15 K) of 0.144. It also gave a solubility (mole fraction) (in ethyl acetate, 308.15 K) of 0.171, a solubility (mole fraction) (in ethyl acetate, 313.15 K) of 0.203 and a solubility (mole fraction) (in ethyl acetate, 318.15 K) of 0.236. It also gave a solubility (mole fraction) (in isopropanol, 278.15 K) of 0.00415, a solubility (mole fraction) (in isopropanol, 283.15 K) of 0.00579 and a solubility (mole fraction) (in isopropanol, 288.15 K) of 0.008. It also gave a solubility (mole fraction) (in isopropanol, 293.15 K) of 0.011, a solubility (mole fraction) (in isopropanol, 298.15 K) of 0.0149 and a solubility (mole fraction) (in isopropanol, 303.15 K) of 0.0203. It also gave a solubility (mole fraction) (in isopropanol, 308.15 K) of 0.0275, a solubility (mole fraction) (in isopropanol, 313.15 K) of 0.0367 and a solubility (mole fraction) (in isopropanol, 318.15 K) of 0.0491. For the same compound, the solubility (mole fraction) (in methanol, 278.15 K) was 0.0111, the solubility (mole fraction) (in methanol, 283.15 K) was 0.0153 and the solubility (mole fraction) (in methanol, 288.15 K) was 0.0207. The solubility (mole fraction) (in methanol, 293.15 K) was 0.0282, the solubility (mole fraction) (in methanol, 298.15 K) was 0.0376 and the solubility (mole fraction) (in methanol, 303.15 K) was 0.05. For the same compound, the solubility (mole fraction) (in methanol, 308.15 K) was 0.0657, the solubility (mole fraction) (in methanol, 313.15 K) was 0.0858 and the solubility (mole fraction) (in methanol, 318.15 K) was 0.111. For the same compound, the solubility (mole fraction) (in n-butanol, 278.15 K) was 0.00408, the solubility (mole fraction) (in n-butanol, 283.15 K) was 0.00599 and the solubility (mole fraction) (in n-butanol, 288.15 K) was 0.00869. It also gave a solubility (mole fraction) (in n-butanol, 293.15 K) of 0.0125, a solubility (mole fraction) (in n-butanol, 298.15 K) of 0.0178 and a solubility (mole fraction) (in n-butanol, 303.15 K) of 0.0252. The solubility (mole fraction) (in n-butanol, 308.15 K) was 0.0353, the solubility (mole fraction) (in n-butanol, 313.15 K) was 0.0492 and the solubility (mole fraction) (in n-butanol, 318.15 K) was 0.0681. It also gave a solubility (mole fraction) (in n-propanol, 278.15 K) of 0.00596, a solubility (mole fraction) (in n-propanol, 283.15 K) of 0.00839 and a solubility (mole fraction) (in n-propanol, 288.15 K) of 0.012. It also gave a solubility (mole fraction) (in n-propanol, 293.15 K) of 0.016, a solubility (mole fraction) (in n-propanol, 298.15 K) of 0.022 and a solubility (mole fraction) (in n-propanol, 303.15 K) of 0.03. It also gave a solubility (mole fraction) (in n-propanol, 308.15 K) of 0.04, a solubility (mole fraction) (in n-propanol, 313.15 K) of 0.052 and a solubility (mole fraction) (in n-propanol, 318.15 K) of 0.069.
